From patent US9682941B2, “Substituted biphenyl analogues as dual inhibitors of aromatase and sulfatase” (ESTRYX PHARMA LIMITED, priority 2013, dated 2017)

What was measured:
[1] = biological target: T1, steroid sulfatase (Homo sapiens, UniProt P08842); assay: Steroid sulfatase (STS) inhibition assay in JEG-3 cells ([6,7-3H] estrone sulfate); format: cell-based; details: 1 hour at 37° C., duplicate
T1 construct: JEG-3 which constitutively expresses high amount of aromatase and steroid sulfatase; endogenous in cells; host or cells: JEG-3
T1 sequence (P08842 22-583): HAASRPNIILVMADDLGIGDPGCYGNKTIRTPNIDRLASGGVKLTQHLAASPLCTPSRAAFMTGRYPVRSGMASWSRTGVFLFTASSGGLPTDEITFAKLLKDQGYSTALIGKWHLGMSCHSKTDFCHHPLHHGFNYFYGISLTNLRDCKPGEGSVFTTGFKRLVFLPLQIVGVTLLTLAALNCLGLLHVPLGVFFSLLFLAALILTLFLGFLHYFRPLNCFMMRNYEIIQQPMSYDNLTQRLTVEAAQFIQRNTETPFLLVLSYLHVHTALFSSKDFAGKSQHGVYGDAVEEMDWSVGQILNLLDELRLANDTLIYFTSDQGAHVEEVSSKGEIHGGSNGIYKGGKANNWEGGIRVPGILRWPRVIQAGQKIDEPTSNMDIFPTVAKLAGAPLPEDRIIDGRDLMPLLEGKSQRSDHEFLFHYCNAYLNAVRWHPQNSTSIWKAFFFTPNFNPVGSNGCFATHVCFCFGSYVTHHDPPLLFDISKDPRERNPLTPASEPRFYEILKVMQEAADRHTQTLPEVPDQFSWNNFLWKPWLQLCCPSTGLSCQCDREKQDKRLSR
Description: (§1) Aromatase and steroid sulfatase enzymes inhibitions were evaluated in the human chorionic carcinoma cell line JEG-3 which constitutively expresses high amount of aromatase and steroid sulfatase.
For STS assay, JEG-3 cells were seeded into 24-well culture plates at 150,000 cells/ml/well and maintained in MEM containing supplements overnight. When reaching 80% confluent, the cells were washed once with serum-free MEM, loaded with 1 ml of substrate mix containing [6,7-3H] Estrone sulfate (E1S, 0.6 μCi/ml) and [4-14C] Estrone (E1, 4 nCi/ml) in the presence of compounds in a concentration series, and incubated for 1 hour at 37° C. The product [3H]E1 was separated from E1S by toluene partition using [4-14C]E1 to monitor extraction procedural losses, and the toluene fraction radioactivity was measured by a MicroBeta scintillation counter.
(§2) Experiments are performed in duplicate. The inhibitory concentration of 50% of the enzymatic activity is calculated.

[2] = biological target: T2, aromatase (Homo sapiens, UniProt P11511); assay: Aromatase inhibition assay in JEG-3 cells ([1β-3H] androstenedione, tritiated water release); format: cell-based; details: 1.25 hour incubation, duplicate
T2 construct: JEG-3 which constitutively expresses high amount of aromatase and steroid sulfatase; endogenous in cells; host or cells: JEG-3
T2 sequence (P11511 1-503): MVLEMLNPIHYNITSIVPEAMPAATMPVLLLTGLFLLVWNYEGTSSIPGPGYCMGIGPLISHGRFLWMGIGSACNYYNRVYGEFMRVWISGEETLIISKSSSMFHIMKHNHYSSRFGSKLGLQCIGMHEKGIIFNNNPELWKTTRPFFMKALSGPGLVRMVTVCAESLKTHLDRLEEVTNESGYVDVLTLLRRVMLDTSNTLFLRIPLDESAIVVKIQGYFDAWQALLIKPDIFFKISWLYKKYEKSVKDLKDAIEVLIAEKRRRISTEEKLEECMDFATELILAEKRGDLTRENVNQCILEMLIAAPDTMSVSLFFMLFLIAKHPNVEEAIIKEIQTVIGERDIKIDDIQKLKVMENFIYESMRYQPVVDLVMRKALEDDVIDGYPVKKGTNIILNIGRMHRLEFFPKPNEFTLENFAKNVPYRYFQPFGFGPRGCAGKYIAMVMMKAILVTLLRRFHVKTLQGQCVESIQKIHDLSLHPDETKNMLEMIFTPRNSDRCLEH
Description: as §1
For aromatase inhibition assay, JEG-3 cells were seeded into 96-well plates at 35,000 cells/well and maintained in MEM containing supplements. When reaching 80% confluent, the cells were washed once with serum-free MEM, incubated with [1β-^3H] androstenedione (A4, 0.2 μCi/ml) for 1.25 hour in the presence of the test substances added in a concentration series. The product, tritiated water (^3H2O), was separated using 2.5% (w/v) dextran-coated charcoal at 4-8° C. for 2 hours. The supernatant radioactivity was measured by a MicroBeta scintillation counter.
as §2

IC50 [1] [nM]	IC50 [2] [nM]	SMILES
35.7	8.4	CN(c1cnc(C#N)c(-c2ccc(OS(N)(=O)=O)cc2)n1)n1cnc2ccccc21 [Example 34, 4-(6-((1H-Benzo[d]imidazol-1-yl)(methyl)amino)-3-cyanopyrazin-2-yl)phenyl sulfamate]
29.4	5.1	N#Cc1ccc(Nn2nnc3cccnc32)cc1-c1ccc(OS(N)(=O)=O)cc1 [Example 35, 5′-(3H-[1,2,3]Triazolo[4,5-b]pyridin-3-ylamino)-2′-cyano-[1,1′-biphenyl]-4-yl sulfamate]
41.8	2.4	CN(c1ccc(C#N)c(-c2ccc(OS(N)(=O)=O)cn2)c1)n1cnc2ccccc21 [Example 37, 6-(5-((1H-Benzo[d]imidazol-1-yl)(methyl)amino)-2-cyanophenyl)pyridin-3-yl sulfamate]
19.1	2.7	N#Cc1ncc(Nn2cnc3ccccc32)cc1-c1ccc(OS(N)(=O)=O)cc1 [Example 38, 4-(5-(1H-Benzo[d]imidazol-1-ylamino)-2-cyanopyridin-3-yl)phenyl sulfamate]
> 60	1.5	CN(c1cnc(C#N)c(-c2ccc(OS(N)(=O)=O)cc2)c1)n1cnc2ccccc21 [Example 39, 4-(5-((1H-Benzo[d]imidazol-1-yl)(methyl)amino)-2-cyanopyridin-3-yl)phenyl sulfamate]
18.8	> 60	N#Cc1ncc(Nn2cnc3cccnc32)nc1-c1ccc(OS(N)(=O)=O)cc1 [Example 40, 4-(6-(3H-Imidazo[4,5-b]pyridin-3-ylamino)-3-cyanopyrazin-2-yl)phenyl sulfamate]
9.3	2	N#Cc1ccc(Nn2cnc3ccccc32)cc1-c1ccc(OS(N)(=O)=O)cn1 [Example 41, 6-(5-(1H-Benzo[d]imidazol-1-ylamino)-2-cyanophenyl)pyridin-3-yl sulfamate]
> 60	41.9	N#Cc1ccc(Cn2cnc3ccccc32)nc1-c1ccc(OS(N)(=O)=O)cn1 [Example 42, 6′-((1H-Benzo[d]imidazol-1-yl)methyl)-3′-cyano-[2,2′-bipyridin]-5-yl sulfamate]
> 60	11.8	N#Cc1ncc(Nn2cnc3cccnc32)cc1-c1ccc(OS(N)(=O)=O)cc1 [Example 43, 4-(5-(3H-Imidazo[4,5-b]pyridin-3-ylamino)-2-cyanopyridin-3-yl)phenyl sulfamate]
> 60	5.8	CN(c1cnc(C#N)c(-c2ccc(OS(N)(=O)=O)cc2)n1)n1cnc2cccnc21 [Example 44, 4-(6-((3H-Imidazo[4,5-b]pyridin-3-yl)(methyl)amino)-3-cyanopyrazin-2-yl)phenyl sulfamate]
> 60	2.1	CN(c1cnc(C#N)c(-c2ccc(OS(N)(=O)=O)cc2)c1)n1cnc2cccnc21 [Example 45, 4-(5-((3H-Imidazo[4,5-b]pyridin-3-yl)(methyl)amino)-2-cyanopyridin-3-yl)phenyl sulfamate]
39.5	21.7	N#Cc1ccc(Nn2cnc3cccnc32)nc1-c1ccc(OS(N)(=O)=O)cc1 [Example 46, 4-(6-(3H-Imidazo[4,5-b]pyridin-3-ylamino)-3-cyanopyridin-2-yl)phenyl sulfamate]
44.1	56.1	N#Cc1cnc(Nn2cnc3cccnc32)nc1-c1ccc(OS(N)(=O)=O)cc1 [Example 47, 4-(2-(3H-Imidazo[4,5-b]pyridin-3-ylamino)-5-cyanopyrimidin-4-yl)phenyl sulfamate]
> 60	5.8	CN(c1ncc(C#N)c(-c2ccc(OS(N)(=O)=O)cc2)n1)n1cnc2cccnc21 [Example 48, 4-(2-((3H-Imidazo[4,5-b]pyridin-3-yl)(methyl)amino)-5-cyanopyrimidin-4-yl)phenyl sulfamate]
> 60	3.7	CN(c1ccc(C#N)c(-c2ccc(OS(N)(=O)=O)cc2)n1)n1cnc2cccnc21 [Example 49, 4-(6-((3H-Imidazo[4,5-b]pyridin-3-yl)(methyl)amino)-3-cyanopyridin-2-yl)phenyl sulfamate]
> 60	16.3	N#Cc1ncc(Cn2cnc3cccnc32)cc1-c1ccc(OS(N)(=O)=O)cc1 [Example 50, 4-(5-((3H-imidazo[4,5-b]pyridin-3-yl)methyl)-2-cyanopyridin-3-yl)phenyl sulfamate]
15.5	2.2	N#Cc1ncc(Cn2cnc3cc(F)c(F)cc32)cc1-c1ccc(OS(N)(=O)=O)cc1 [Example 51, 4-(2-Cyano-5-((5,6-difluoro-1H-benzo[d]imidazol-1-yl)methyl)pyridin-3-yl)phenyl sulfamate]
5.4	2.9	N#Cc1cnc(Cn2cnc3cc(F)c(F)cc32)nc1-c1ccc(OS(N)(=O)=O)cc1 [Example 52, 4-(5-Cyano-2-((5,6-difluoro-1H-benzo[d]imidazol-1-yl)methyl)pyrimidin-4-yl)phenyl sulfamate]
